Data set [1] deals with Voltage-gated inwardly rectifying potassium channel KCNH2 (Homo sapiens, UniProt Q12809).
Description: Displacement of radiolabeled MK-499 from human ERG expressed in HEK293 cells
Data set [2] deals with Gamma-secretase. Briefly: Inhibition of gamma-secretase in human SH-SY5Y cells overexpressing APP assessed as amyloid beta-42 production by electrochemiluminescent assay.
Data set [3] addresses Gamma-secretase. Briefly: Inhibition of gamma-secretase in human SH-SY5Y cells overexpressing APP assessed as amyloid beta-40 production by electrochemiluminescent assay.
A short description of data set [4]: Plasma clearance in Sprague-Dawley rat at 2 mg/kg, po. Type of data set: ADME, organism-based. Also noted: dose 2 mg/kg, route oral.
Data set [5] in a line: Volume of distribution at steady state in Sprague-Dawley rat at 1 mg/kg, iv. Also noted: dose 1 mg/kg, route intravenous. The following applies: in vivo. Type of data set: ADME, organism-based.
Data set [6] has as its system Rattus norvegicus. Description: Volume of distribution at steady state in Sprague-Dawley rat at 2 mg/kg, po. Particulars: in vivo. Type of data set: ADME, organism-based. Also noted: dose 2 mg/kg, route oral.
Data set [7] can be described thus: Oral bioavailability in Sprague-Dawley rat at 2 mg/kg. Type of data set: ADME, organism-based. The following applies: in vivo.
The nature of data set [8]: Plasma clearance in Sprague-Dawley rat at 1 mg/kg, iv. Type of data set: ADME, organism-based. Also noted: dose 1 mg/kg, route intravenous.
Data set [9] concerns Rattus norvegicus. Briefly: Dose normalized AUC in Sprague-Dawley rat at 2 mg/kg, po. The data set is classed as ADME, organism-based. Details: dose 2 mg/kg, route oral. The following applies: in vivo.
Data set [10] can be described thus: Half life in Sprague-Dawley rat at 1 mg/kg, iv. Type of data set: ADME, organism-based. Details: dose 1 mg/kg, route intravenous. Particulars: in vivo.
Data set [11] can be described thus: Solubility of the compound in PBS buffer. The data set is classed as physicochemical.

Structures are written as SMILES. pIC50: −log10 of the molar value. In brackets after ≈: the same amount, converted by molar mass.

Voltage-gated inwardly rectifying potassium channel KCNH2, sequence (Q12809 whole entry): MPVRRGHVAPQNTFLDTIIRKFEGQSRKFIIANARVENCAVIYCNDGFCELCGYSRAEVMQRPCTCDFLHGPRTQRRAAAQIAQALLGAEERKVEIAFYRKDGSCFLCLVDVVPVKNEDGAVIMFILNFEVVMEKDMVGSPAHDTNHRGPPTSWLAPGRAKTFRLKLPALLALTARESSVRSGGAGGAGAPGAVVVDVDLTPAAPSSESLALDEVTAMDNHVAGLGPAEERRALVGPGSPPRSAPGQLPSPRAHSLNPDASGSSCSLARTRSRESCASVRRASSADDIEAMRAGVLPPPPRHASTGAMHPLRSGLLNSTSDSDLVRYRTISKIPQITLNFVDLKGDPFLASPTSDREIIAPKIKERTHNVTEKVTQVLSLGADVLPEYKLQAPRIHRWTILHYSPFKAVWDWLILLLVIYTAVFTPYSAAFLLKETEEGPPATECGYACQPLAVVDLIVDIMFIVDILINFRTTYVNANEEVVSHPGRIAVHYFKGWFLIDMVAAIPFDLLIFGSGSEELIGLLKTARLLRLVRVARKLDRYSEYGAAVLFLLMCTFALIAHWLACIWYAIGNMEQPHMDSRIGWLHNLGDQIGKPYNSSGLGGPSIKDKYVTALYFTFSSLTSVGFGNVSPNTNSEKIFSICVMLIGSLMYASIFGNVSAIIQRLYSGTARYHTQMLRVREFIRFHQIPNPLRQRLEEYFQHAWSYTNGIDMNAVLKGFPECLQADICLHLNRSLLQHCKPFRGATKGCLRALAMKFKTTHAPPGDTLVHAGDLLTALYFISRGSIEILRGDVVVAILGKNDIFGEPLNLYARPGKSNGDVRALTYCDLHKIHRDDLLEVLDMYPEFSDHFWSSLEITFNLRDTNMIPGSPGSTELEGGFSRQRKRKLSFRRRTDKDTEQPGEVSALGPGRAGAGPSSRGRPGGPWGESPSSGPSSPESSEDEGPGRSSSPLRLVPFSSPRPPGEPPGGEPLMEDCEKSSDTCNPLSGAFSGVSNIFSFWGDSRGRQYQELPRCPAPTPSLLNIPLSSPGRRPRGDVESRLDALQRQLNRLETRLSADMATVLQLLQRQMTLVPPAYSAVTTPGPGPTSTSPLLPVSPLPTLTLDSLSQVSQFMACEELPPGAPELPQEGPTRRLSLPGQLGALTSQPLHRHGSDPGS

`COc1cc(/C=C/c2nc3ccccc3[nH]2)ccc1-n1cnc(C)c1`: the values for the pIC50 (in data set [1]; on Gamma-secretase [2]; at Gamma-secretase [3]) were 6.17, 6.08 and < 5.00, respectively.
Turning to `COc1cc(/C=C/c2nc3ccccc3c(=O)[nH]2)ccc1-n1cnc(C)c1`, the negative logarithm of the IC50 (pIC50) at Gamma-secretase [2] was 5.41; at Gamma-secretase [3], 5.31.
On to `COc1cc(/C=C/c2nc3cccc(F)c3c(=O)[nH]2)ccc1-n1cnc(C)c1`, for which the pIC50 on Gamma-secretase [2] is 5.31; at Gamma-secretase [3], < 5.00.
For the compound `COc1cc(/C=C/c2nc3ccc(F)cc3c(=O)[nH]2)ccc1-n1cnc(C)c1`, the pIC50 at Gamma-secretase [2] was 5.37; on Gamma-secretase [3], < 5.00.
`COc1cc(/C=C/c2nc3cc(Cl)ccc3c(=O)[nH]2)ccc1-n1cnc(C)c1` came in with a CL/F in [4] of 8 mL/min/kg. This compound also showed a distribution volume (Vd) in data set [5] of 1.8 L/kg. The compound also registered a Vdss in the data set with Rattus norvegicus [6] of 8 L/kg. In addition, the negative-log IC50 (pIC50) at Gamma-secretase [2] was 6.18; at Gamma-secretase [3], < 5.00. This compound also had a bioavailability in data set [7] of 59%. The clearance in data set [8] was 6.8 mL/min/kg. In the data set with Rattus norvegicus [9], the AUC stood at 7 µM·h. The half-life in data set [10] stood at 5.8 h.
Consider `COc1cc(/C=C/c2nc3cc(Br)ccc3c(=O)[nH]2)ccc1-n1cnc(C)c1`, for which the negative-log IC50 (pIC50) was 6.47 on Gamma-secretase [2] and 5.32 on Gamma-secretase [3].
The corresponding values for `COc1cc(/C=C/c2nc3cc(S(C)(=O)=O)ccc3c(=O)[nH]2)ccc1-n1cnc(C)c1` are 5.66 and 5.17.
`COc1cc(/C=C/c2nc3cc(C(F)(F)F)ccc3c(=O)[nH]2)ccc1-n1cnc(C)c1`: the negative-log IC50 (pIC50) on Gamma-secretase [2] was 6.43; on Gamma-secretase [3], 5.43.
Turning to `COc1cc(/C=C/c2nc3scc(C)c3c(=O)[nH]2)ccc1-n1cnc(C)c1`, the pIC50 in data set [1] was < 5.00; at Gamma-secretase [2], 5.89; at Gamma-secretase [3], < 5.00.
For the compound `COc1cc(/C=C/c2nc3sc(C)c(C)c3c(=O)[nH]2)ccc1-n1cnc(C)c1`, the pIC50 is < 5.00 in data set [1], 5.78 at Gamma-secretase [2] and < 5.00 on Gamma-secretase [3].
Turning to `COc1cc(/C=C/c2nc3sc4c(c3c(=O)[nH]2)CCC4)ccc1-n1cnc(C)c1`, the negative-log IC50 (pIC50) was 5.33 in data set [1], 6.43 on Gamma-secretase [2] and 5.41 at Gamma-secretase [3].
`COc1cc(/C=C/c2nc(N)c3ccccc3n2)ccc1-n1cnc(C)c1`: the figures for the pIC50 (in [1]; at Gamma-secretase [2]; on Gamma-secretase [3]) were 6.85, 5.77 and 5.21, respectively. Besides, in [11], the solubility was found to be 6 µM (≈ 2.14 µg/mL).
`COc1cc(/C=C/c2nc3ccccc3c(=O)n2-c2ccccc2)ccc1-n1cnc(C)c1`: the figures for the pIC50 (in [1]; on Gamma-secretase [2]; at Gamma-secretase [3]) were 6.00, 5.68 and < 5.00, respectively.
With `COc1cc(/C=C/c2nc3ccccc3c(=O)n2C)ccc1-n1cnc(C)c1`, the solubility in data set [11] amounted to 33 µM (≈ 12.3 µg/mL). Besides, the pIC50 on Gamma-secretase [2] and on Gamma-secretase [3] was < 5.00 in each case.
Regarding `COc1cc(/C=C/c2nc(N)nc(Nc3ccccc3)n2)ccc1-n1cnc(C)c1`, the figures for the pIC50 at Gamma-secretase [2] and on Gamma-secretase [3] were 5.97 and 5.48, respectively.
As to `CCOC(=O)c1sc2nc(/C=C/c3ccc(-n4cnc(C)c4)c(OC)c3)nc(N)c2c1C`, the results for the pIC50 (in data set [1]; at Gamma-secretase [2]; on Gamma-secretase [3]) were 6.01, 6.27 and 5.43, respectively.
Consider `COc1cc(/C=C/c2nc(N)c3c(n2)oc2ccccc23)ccc1-n1cnc(C)c1`, for which the pIC50 in [1] is 6.29; on Gamma-secretase [2], 6.49; at Gamma-secretase [3] it was 5.53.
On the same counts, the results for `COc1cc(/C=C/c2nc(NCc3ccccc3)c3c4c(sc3n2)CCC4)ccc1-n1cnc(C)c1` are 5.95, 5.73 and < 5.00.
As to `COc1cc(/C=C/c2nc(N)c3c4c(sc3n2)CCCCC4)ccc1-n1cnc(C)c1`, the pIC50 is 6.70 at Gamma-secretase [2] and 5.69 on Gamma-secretase [3].

The values are drawn from ChEMBL document CHEMBL1641467, “Quinazolinones as γ-secretase modulators” (Bioorg Med Chem Lett, 2011).
